Patent US9795607B2, “Substituted pyrrolopyrimidine compounds, compositions thereof, and methods of treatment therewith” (Signal Pharmaceutical, LLC, priority 2013, dated 2017)
pIC50: −log10 of the molar value.

Tested on: Triple negative breast cancer cell line CAL51
Assay: Cell Titer Glo proliferation assay, CAL51
Assay type: cell-based
Conditions: Homo sapiens, CAL-51; CAL51 cell proliferation, Cell Titer Glo; read-out: Act. Level
Outline: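 CAL51 cells grown in DMEM or RPMI1640 with 10% FBS and 2 mM L-glutamine, cultured overnight, then exposed to serially diluted compound (0.2% DMSO final) for 72 h. Viability read by Cell Titer Glo luminescence.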

CNC(=O)c1ccc(-c2c[nH]c3nc(Nc4ccc(C(=O)NC5CN(C)C5)cc4OC)nc(OC4CCC(C)(O)CC4)c23)cc1 (centres unmarked) [Example 349, 4-(4-((1s,4s)-4-hydroxy-4-methylcyclohexyloxy)-5-(4-(methylcarbamoyl)phenyl)-7H-pyrrolo[2,3-d]pyrimidin-2-ylamino)-3-methoxy-N-(1-methylazetidin-3-yl)benzamide]
pIC50: 6.40 to 7.00

CNC(=O)c1ccc(Nc2nc(OC3CCCC3)c3c(-c4cc(F)c5nc(C)oc5c4)c[nH]c3n2)c(OC)c1 [Example 330, 4-(4-(cyclopentyloxy)-5-(4-fluoro-2-methylbenzo[d]oxazol-6-yl)-7H-pyrrolo[2,3-d]pyrimidin-2-ylamino)-3-methoxy-N-methylbenzamide]
pIC50: 6.40 to 7.00
